# Data from US20250313544A1, “INHIBITORS OF GLUTATHIONE S-TRANSFERASE ZETA 1 (GSTZ1) AND METHODS OF USE” (H. LEE MOFFITT CANCER CENTER AND RESEARCH INSTITUTE, INC., priority 2022, published 2025).
# Key:
# H1792 LUAD cells = assay: Chemical proteomics target profiling in live H1792 cells (label-free LC-MS/MS, comparison with control probe 22 and panel-wide cross-comparison); assay type: binding, human; conditions: for number of probe-enriched target candidates over control probe 22 (promiscuity): log2 ratio vs. control probe >2.32; for prominent target protein predominantly enriched by the probe: compared to control probe and probe panel; for other proteins also enriched by the probe: log2 ratio>2.32 and enrichment score>2
# Method: (§1) Cells were grown in 10 cm dishes to ˜90% confluence at the time of treatment. Cells were carefully washed twice with Dulbecco's phosphate buffered saline (DPBS) and replenished with fresh serum-free RPMI 1640 media containing indicated probes ([…]), competitors, or DMSO. Without competitors, cells were incubated with probes for 30 min at 37° C. and then exposed to 365 nm UV light for 15 min on ice. With competitors, cells were pre-treated with competitors for 30 min and photoactivated for 15 min. Probes were then added to cells for an additional 30 min incubation. For no UV experiments, cells were incubated for 15 min under ambient light. Cells were harvested in cold DPBS and pellets were washed with cold DPBS (2 X). Pellets were either directly processed or kept frozen at −80° C. until use. Cells pellets were lysed for 30 min in cold DPBS (100-300 uL) per culture dish supplemented with 1% NP-40, followed by sonication (5 pulses, 4 s on, 20 s off, output setting=4). Lysates were centrifuged at 20,817×g for 20 min, and supernatant (soluble proteome) was used for further processing. Protein concentrations were determined using Bradford assays.
# Protein pellets were transferred to 5 mL microcentrifuge tubes and then resuspended in a freshly-prepared solution of proteomics-grade urea (320 μL, 6 M Urea in DPBS) containing 80 μL of 10% SDS and dissolved by sonication. To each solution, 4 mL DPBS was added (final conc: 0.2%, total volume) and incubated with pre-equilibrated NeutrAvidin agarose resin (100 μL 1:1 slurry, Pierce, Cat. 29201) for 2 hrs at ambient temperature on a rotator. The NeutrAvidin beads were collected by centrifugation (1,400×g, 2 min) and sequentially washed with 0.2% SDS in DPBS (2×2 mL), detergent-free DPBS (2×2 mL), and 50 mM ammonium bicarbonate (AMBIC, 2×2 mL). Beads were resuspended with 200 μL 50 mM AMBIC and incubated with TCEP 50 μL (100 mM in 50 mM AMBIC) for 30 min at 37° C. Iodoacetamide (50 μL of 200 mM in 50 mM AMBIC) was added and incubated for 30 min at ambient temperature. The beads were again washed with 2×1 mL 50 mM AMBIC and resuspended in 100 μL of fresh 50 mM AMBIC and treated with 2 μg of sequencing grade modified trypsin (Promega, #V5111) at 37° C. overnight. These samples were acidified with formic acid (final conc: 5%) and centrifuged (1,000×g, 2 min). The supernatant was collected and desalted through ZIPTIPs, and the desalted peptide mixture were dried in vacuum and reconstituted with HPLC buffer (2% acetonitrile, 0.1% formic acid) for LC-MS/MS analysis. Tryptic peptides of avidin were excluded from MS2 analysis to maximize detection of the protein targets (Table S7). Samples were analyzed using LC-MS/MS after being spiked with 50 fmol/uL PRTC standards (88320, Pierce Retention Time Calibration Mixture, Thermo Fisher, MA). A nanoflow ultra high performance liquid chromatograph and nanoelectrospray orbitrap mass spectrometer (RSLCnano and Q Exactive plus, Thermo) were used for LC-MS/MS. The sample was loaded onto a pre-column (C18 PepMap100, 2 cm length×100 μm ID packed with C18 reversed-phase resin, 5 μm particle size, 100 Å pore size) and washed for 8 minutes with aqueous 2% acetonitrile and 0.1% formic acid. Trapped peptides were eluted onto the analytical column, (C18 PepMap100, 25 cm length×75 μm ID, 2 μm particle size, 100 Å pore size, Thermo). A 120-minute gradient was programmed as: 95% solvent A (aqueous 2% acetonitrile+0.1% formic acid) for 8 minutes, solvent B (aqueous 90% acetonitrile+0.1% formic acid) from 5% to 38.5% in 90 minutes, then solvent B from 50% to 90% B in 7 minutes and held at 90% for 5 minutes, followed by solvent B from 90% to 5% in 1 minute and re-equilibration for 10 minutes using a flow rate of 300 nl/min. Spray voltage was 1900 V. Capillary temperature was 275° C. S lens RF level was set at 40. Top 16 tandem mass spectra were collected in a data-dependent manner. The resolution for MS and MS/MS were set at 70,000 and 17,500 respectively. […]
# [1] = system: drug-refractory NSCLC cells (H1792, H520, HCC366); assay: Cell viability assay (CellTiter-Glo) across drug-refractory NSCLC cell lines; assay type: cell-based, human; conditions: single agent
# Method: (§2) Cells were seeded in Corning 384-well black walled/clear bottom microplates with a density of 1,000 cells/well and treated with indicated drugs and concentrations following cell attachment for 24 h. After 72 h or 96 h, as indicated, cell viability was evaluated with CellTiter-Glo (Promega, Madison, WI) according to manufacturer's recommendations. An M5 Spectramax plate reader (Molecular devices) was used to read the plates with 500 ms integration. Data was processed and analyzed using Excel and GraphPad Prism 9.0.
# H1792 cells [2] = assay: In-gel fluorescence analysis of probe-labeled proteins after photocrosslinking in live H1792 cells; assay type: binding, human; conditions: compared to vehicle
# Method: as §1
# To 1 mg of protein, were added a mixture of TBTA (Tris((1-benzyl-4-triazolyl)methyl)amine, 60 μL/sample, 1.7 mM in 1:4 DMSO: t-BuOH stock), CuSO4 (20 μL/sample, 50 mM in H2O), TCEP (tris(2-carboxyethyl) phosphine, 20 μL/sample, 50 mM in DPBS, made fresh) and Biotin-Azide conjugate (10 μL/sample, 10 mM in DMSO stock). Each sample was rotated at room temperature for 2 h. To each resultant a cold 4:1 mixture (600 μL) of methanol (MeOH)/chloroform (CHCl3) was added followed by cold PBS (100 μL) on ice. The resulting cloudy mixture was centrifuged (5,000×g, 10 min, 4° C.) to fractionate the protein interface from the organic and aqueous solvent layers. A MeOH:CHCl3 (1:1, 1 mL, 2×) mixture was used to wash protein discs thoroughly. Protein discs were sonicated in cold 4:1 MeOH:CHCl3 (2 mL) mixture. The remaining precipitate was pelleted by centrifugation (5,000×g, 10 min, 4° C.). […] Gels were subjected to fluorescence imaging or Western Blotting.
# H1792 cells [3] = assay: Protein tyrosine reactivity profiling (SuTEx probe HHS-482, LC-MS/MS) in H1792 cells; assay type: cell-based, human; conditions: 24 h treatment, log2 ratio ≤−0.585 or ≥0.585, p<0.05 vs. vehicle
# Method: Cell lysates were prepared and diluted to 2 mg/mL in PBS. Samples were treated with HHS-482 (a SuTEx probe) at 25 μM for 1 h at room temperature. Labeled proteomes were subjected to CuAAC conjugation with Biotin-Azide conjugate (200 μM) by mixing with TCEP (1 mM), TBTA (100 μM), and CuSO4 (1 mM). After 1 h incubation, resulting mixtures were subjected to MeOH: CHCl3 extraction as described above. Protein discs were reconstituted with urea buffer supplemented with 10% SDS. Samples were processed with NeutrAvidin beads, on-bead digestion with trypsin, and ZIPTIP purification as described above. Samples were dried in vacuum and prepared for LC-MS/MS analysis.
# [4] = system: H520 cells harboring amplified FGFR1; assay: Cell viability assay (CellTiter-Glo) in H520 cells; assay type: cell-based, human
# Method: as §2
# [5] = system: H1792 cells harboring KRAS G12C; assay: Cell viability assay (CellTiter-Glo) in H1792 cells; assay type: cell-based, human
# Method: as §2
smiles,measurement,setting,value
"C#CCCC1(CCC(=O)NC2CC(Oc3nccn4nc(C)cc34)CC(C)(C)C2)N=N1 (stereo not drawn) [Probe 2, 3-(3-(but-3-yn-1-yl)-3H-diazirin-3-yl)-N-(3,3-dimethyl-5-((2-methylpyrazolo[1,5-a]pyrazin-4-yl)oxy)cyclohexyl)propanamide]",number of probe-enriched target candidates over control probe 22 (promiscuity),H1792 LUAD cells,most promiscuous
"C#CCCC1(CCC(=O)Nc2ccc3c(c2)N(CC(C)C)C(=O)C(C)(C)CO3)N=N1 [Probe 7, 3-(3-(but-3-yn-1-yl)-3H-diazirin-3-yl)-N-(5-isobutyl-3,3-dimethyl-4-oxo-2,3,4,5-tetrahydrobenzo[b][1,4]oxazepin-7-yl)propanamide]",cellular activity of probes (cell viability),[1],displayed activity toward multiple tested cell lines
same,prominent target protein predominantly enriched by the probe,H1792 LUAD cells,MMGT1
same,number of probe-enriched target candidates over control probe 22 (promiscuity),H1792 LUAD cells,most promiscuous
"C#CCCC1(CCC(=O)N2CCC(Oc3ncc(C(F)(F)F)cc3Cl)C2)N=N1 (stereo not drawn) [Probe 5, 3-(3-(but-3-yn-1-yl)-3/-diazirin-3-yl)-1-(3-((3-chloro-5-(trifluoromethyl)pyridin-2-yl)oxy)pyrrolidin-1-yl)propan-1-one]",cellular activity of probes (cell viability),[1],displayed activity toward multiple tested cell lines
same,proteome labeling by probe (in-gel fluorescence),H1792 cells [2],efficiently labeled a wide range of proteins
same,prominent target protein predominantly enriched by the probe,H1792 LUAD cells,ME3
same,number of probe-enriched target candidates over control probe 22 (promiscuity),H1792 LUAD cells,most promiscuous
same,other proteins also enriched by the probe,H1792 LUAD cells,"FARSA, PTGR1, ME1, YIF1A, and SGPL1"
C=CC(=O)N1CCN(c2nc(=O)n(-c3c(C)ccnc3C(C)C)c3nc(-c4c(O)cccc4F)c(F)cc23)[C@@H](C)C1 [sotorasib],number of proteins with significantly altered Tyr reactivity,H1792 cells [3],106 proteins
"C#CCCC1(CCC(=O)N2CCN(Cc3nc(-c4cccs4)cs3)CC2)N=N1 [Probe 6, 3-(3-(but-3-yn-1-yl)-3H-diazirin-3-yl)-1-(4-((4-(thiophen-2-yl)thiazol-2-yl)methyl)piperazin-1-yl)propan-1-one]",prominent target protein predominantly enriched by the probe,H1792 LUAD cells,NDUFB11
same,number of probe-enriched target candidates over control probe 22 (promiscuity),H1792 LUAD cells,most promiscuous
same,other proteins also enriched by the probe,H1792 LUAD cells,"NDUFB10, AK3, and LTA4H"
"C#CCCC1(CCC(=O)N2CCCCC2c2nnc(C(=O)OC)s2)N=N1 (stereo not drawn) [Probe 19, Methyl-5-(1-(3-(3-(but-3-yn-1-yl)-3H-diazirin-3-yl)propanoyl)piperidin-2-yl)-1,3,4-thiadiazole-2-carboxylate]",number of probe-enriched target candidates over control probe 22 (promiscuity),H1792 LUAD cells,few
"C#CCCC1(CCC(=O)N2CC(Nc3ncccn3)C2)N=N1 [Probe 18, 3-(3-(but-3-yn-1-yl)-3H-diazirin-3-yl)-1-(3-(pyrimidin-2-ylamino)azetidin-1-yl)propan-1-one]",number of probe-enriched target candidates over control probe 22 (promiscuity),H1792 LUAD cells,few
"C#CCCC1(CCC(=O)N2CCCC2COc2nc3ccccc3cc2C#N)N=N1 (stereo not drawn) [Probe 20, 2-((1-(3-(3-(but-3-yn-1-yl)-3H-diazirin-3-yl)propanoyl)pyrrolidin-2-yl)methoxy)quinoline-3-carbonitrile]",cellular activity of probes (cell viability),[1],displayed activity toward multiple tested cell lines
"CCN1CCN(c2ccc(Nc3cc(N(C)C(=O)Nc4c(Cl)c(OC)cc(OC)c4Cl)ncn3)cc2)CC1 [infigratinib, reference compound]",cell response to targeted drug,"[4]; H520, FGFR1 overexpression",only partially respond
"C=CC(=O)N1CCN(c2ncnc3c(F)c(-c4c(O)cccc4F)c(Cl)cc23)CC1 [ARS1620, reference compound]",cell response to targeted drug,"[5]; H1792, KRAS^G12C mutation",poorly responded
"C#CCCC1(CCC(=O)NCCCNC(=O)c2ccc3c4c(ncnc24)-c2ccccc2C3=O)N=N1 [Probe 21, N-(3-(3-(3-(but-3-yn-1-yl)-3H-diazirin-3-yl)propanamido)propyl)-7-oxo-7H-benzo[e]perimidine-4-carboxamide]",cellular activity of probes (cell viability),[1],displayed activity toward multiple tested cell lines
same,relative potency among active probes (cell viability),[1],more potent
same,proteome labeling by probe (in-gel fluorescence),H1792 cells [2],efficiently labeled a wide range of proteins
same,cellular activity (cell viability),"[5]; H1792 cells, single agent",highly active
same,cellular activity (cell viability),"[4]; H520 cells, single agent",highly active
same,number of candidate target proteins identified for the probe,H1792 LUAD cells,5
